Measured values from US20250171438A1 (Agios Pharmaceuticals, Inc., priority 2022, published 2025).

target: T1, human PAH with the R408W mutation (Homo sapiens, UniProt P00439, R408W); experiment: Cell Based Phenylalanine Flux Assay; conditions: A375 cells expressing human R408W PAH; 24 hrs compound incubation; 13C-Tyrosine by LC-MS; average where tested multiple times; read-out: AC50
T1 construct: expressed in transfected cells
T1 sequence (P00439 1-452 R408W): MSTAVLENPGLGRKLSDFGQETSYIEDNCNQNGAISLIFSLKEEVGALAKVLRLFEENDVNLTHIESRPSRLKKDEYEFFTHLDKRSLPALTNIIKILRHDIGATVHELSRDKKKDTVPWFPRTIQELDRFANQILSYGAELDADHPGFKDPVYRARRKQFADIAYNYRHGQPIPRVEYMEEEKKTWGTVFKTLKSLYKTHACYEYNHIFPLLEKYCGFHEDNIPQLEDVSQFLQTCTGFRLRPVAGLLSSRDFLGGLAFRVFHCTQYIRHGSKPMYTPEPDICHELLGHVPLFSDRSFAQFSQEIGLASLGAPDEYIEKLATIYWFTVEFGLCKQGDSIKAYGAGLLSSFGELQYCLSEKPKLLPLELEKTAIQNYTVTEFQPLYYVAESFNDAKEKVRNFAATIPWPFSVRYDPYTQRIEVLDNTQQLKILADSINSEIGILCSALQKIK

AC50 [µM] | Structure (SMILES)
1 to 5 | O=C(c1cnn(CC(F)(F)F)c1C(F)F)N1CCc2[nH]cnc2[C@@H]1c1nc2ccccc2s1 [Example 1974, (R)-(4-(benzo[d]thiazol-2-yl)-6,7-dihydro-1H-imidazo[4,5-c]pyridin-5(4H)-yl)(5-(difluoromethyl)-1-(2,2,2-trifluoroethyl)-1H-pyrazol-4-yl)methanone]
1 to 5 | O=C(c1cnn(CC(F)(F)F)c1C(F)F)N1CCc2[nH]cnc2[C@H]1c1nc2c(F)cccc2s1 [Example 1975]
0.5 to 1 | O=C(c1cnn(CC(F)(F)F)c1C(F)F)N1CCc2[nH]cnc2[C@@H]1c1nc2c(F)cccc2s1 [Example 1976, (R)-(5-(difluoromethyl)-1-(2,2,2-trifluoroethyl)-1H-pyrazol-4-yl)(4-(4-fluorobenzo[d]thiazol-2-yl)-6,7-dihydro-1H-imidazo[4,5-c]pyridin-5(4H)-yl)methanone]
1 to 5 | Cn1nc(Br)nc1C(=O)N1CCc2[nH]cnc2[C@H]1c1nc2ccccc2s1 [Example 1977]
1 to 5 | Cn1nc(Br)nc1C(=O)N1CCc2[nH]cnc2[C@@H]1c1nc2ccccc2s1 [Example 1978, (R)-(4-(benzo[d]thiazol-2-yl)-6,7-dihydro-1H-imidazo[4,5-c]pyridin-5(4H)-yl)(3-bromo-1-methyl-1H-1,2,4-triazol-5-yl)methanone]
0.5 to 1 | C[C@@H](O)c1nc(C(F)F)c(C(=O)N2CCc3[nH]cnc3[C@@H]2c2nc3c(F)cccc3s2)o1 [Example 1979, (4-(difluoromethyl)-2-((R)-1-hydroxyethyl)oxazol-5-yl)((R)-4-(4-fluorobenzo[d]thiazol-2-yl)-6,7-dihydro-1H-imidazo[4,5-c]pyridin-5(4H)-yl)methanone]
< 0.5 | C[C@@H](O)c1nc(C(F)F)c(C(=O)N2CCc3[nH]cnc3[C@H]2c2nc3c(F)cccc3s2)o1 [Example 1980, (4-(difluoromethyl)-2-((R)-1-hydroxyethyl)oxazol-5-yl) ((S)-4-(4-fluorobenzo[d]thiazol-2-yl)-6,7-dihydro-1H-imidazo[4,5-c]pyridin-5(4H)-yl)methanone]
< 0.5 | O=C(c1cn(CC(F)F)nc1Cl)N1CCc2[nH]cnc2[C@H]1c1nc2c(F)cccc2s1 [Example 1981, (S)-(3-chloro-1-(2,2-difluoroethyl)-1H-pyrazol-4-yl)(4-(4-fluorobenzo[d]thiazol-2-yl)-6,7-dihydro-1H-imidazo[4,5-c]pyridin-5(4H)-yl)methanone]
1 to 5 | O=C(c1cn(CC(F)F)nc1Cl)N1CCc2[nH]cnc2[C@@H]1c1nc2c(F)cccc2s1 [Example 1982, (R)-(3-chloro-1-(2,2-difluoroethyl)-1H-pyrazol-4-yl)(4-(4-fluorobenzo[d]thiazol-2-yl)-6,7-dihydro-1H-imidazo[4,5-c]pyridin-5(4H)-yl)methanone]
< 0.5 | O=C(c1cn(CC2CC2)nc1Cl)N1CCc2[nH]cnc2[C@H]1c1nc2c(F)cccc2s1 [Example 1983, (S)-(3-chloro-1-(cyclopropylmethyl)-1H-pyrazol-4-yl)(4-(4-fluorobenzo[d]thiazol-2-yl)-6,7-dihydro-1H-imidazo[4,5-c]pyridin-5(4H)-yl)methanone]
1 to 5 | O=C(c1cn(CC2CC2)nc1Cl)N1CCc2[nH]cnc2[C@@H]1c1nc2c(F)cccc2s1 [Example 1984, (R)-(3-chloro-1-(cyclopropylmethyl)-1H-pyrazol-4-yl)(4-(4-fluorobenzo[d]thiazol-2-yl)-6,7-dihydro-1H-imidazo[4,5-c]pyridin-5(4H)-yl)methanone]
< 0.5 | O=C(c1cn(CC(F)(F)F)nc1C(F)F)N1CCc2[nH]cnc2[C@H]1c1nc2ccccc2s1 [Example 1985]
1 to 5 | O=C(c1cn(CC(F)(F)F)nc1C(F)F)N1CCc2[nH]cnc2[C@@H]1c1nc2ccccc2s1 [Example 1986, (R)-(4-(benzo[d]thiazol-2-yl)-6,7-dihydro-1H-imidazo[4,5-c]pyridin-5(4H)-yl)(3-(difluoromethyl)-1-(2,2,2-trifluoroethyl)-1H-pyrazol-4-yl)methanone]
< 0.5 | O=C(c1cn(CC(F)(F)F)nc1C(F)F)N1CCc2[nH]cnc2[C@H]1c1nc2c(F)cccc2s1 [Example 1987]
1 to 5 | O=C(c1cn(CC(F)(F)F)nc1C(F)F)N1CCc2[nH]cnc2[C@@H]1c1nc2c(F)cccc2s1 [Example 1988, (R)-(3-(difluoromethyl)-1-(2,2,2-trifluoroethyl)-1H-pyrazol-4-yl)(4-(4-fluorobenzo[d]thiazol-2-yl)-6,7-dihydro-1H-imidazo[4,5-c]pyridin-5(4H)-yl)methanone]
1 to 5 | O=C(c1cnn(CC2CC(F)(F)C2)c1Cl)N1CCc2[nH]cnc2[C@H]1c1nc2c(F)cccc2s1 [Example 1989, (S)-(5-chloro-1-((3,3-difluorocyclobutyl)methyl)-1H-pyrazol-4-yl)(4-(4-fluorobenzo[d]thiazol-2-yl)-6,7-dihydro-1H-imidazo[4,5-c]pyridin-5(4H)-yl)methanone]
1 to 5 | O=C(c1cnn(CC2CC(F)(F)C2)c1Cl)N1CCc2[nH]cnc2[C@@H]1c1nc2c(F)cccc2s1 [Example 1990, (R)-(5-chloro-1-((3,3-difluorocyclobutyl)methyl)-1H-pyrazol-4-yl)(4-(4-fluorobenzo[d]thiazol-2-yl)-6,7-dihydro-1H-imidazo[4,5-c]pyridin-5(4H)-yl)methanone]
< 0.5 | CC(=O)Cn1cc(C(=O)N2CCc3[nH]cnc3[C@H]2c2nc3c(F)cccc3s2)c(Cl)n1 [Example 1991, (S)-1-(3-chloro-4-(4-(4-fluorobenzo[d]thiazol-2-yl)-4,5,6,7-tetrahydro-1H-imidazo[4,5-c]pyridine-5-carbonyl)-1H-pyrazol-1-yl)propan-2-one]
> 5 | CC(=O)Cn1cc(C(=O)N2CCc3[nH]cnc3[C@@H]2c2nc3c(F)cccc3s2)c(Cl)n1 [Example 1992, (R)-1-(3-chloro-4-(4-(4-fluorobenzo[d]thiazol-2-yl)-4,5,6,7-tetrahydro-1H-imidazo[4,5-c]pyridine-5-carbonyl)-1H-pyrazol-1-yl)propan-2-one]
1 to 5 | CC(C)(O)Cn1cc(C(=O)N2CCc3[nH]cnc3[C@@H]2c2nc3c(F)cccc3s2)c(Cl)n1 [Example 1993, (R)-(3-chloro-1-(2-hydroxy-2-methylpropyl)-1H-pyrazol-4-yl)(4-(4-fluorobenzo[d]thiazol-2-yl)-6,7-dihydro-1H-imidazo[4,5-c]pyridin-5(4H)-yl)methanone]
1 to 5 | CC(C)(O)Cn1cc(C(=O)N2CCc3[nH]cnc3[C@H]2c2nc3c(F)cccc3s2)c(Cl)n1 [Example 1994]
< 0.5 | O=C(c1oc(C2(O)CC2)nc1C(F)F)N1CCc2[nH]cnc2[C@H]1c1nc2c(F)cccc2s1 [Example 1995]
1 to 5 | O=C(c1oc(C2(O)CC2)nc1C(F)F)N1CCc2[nH]cnc2[C@@H]1c1nc2c(F)cccc2s1 [Example 1996, (R)-(4-(difluoromethyl)-2-(1-hydroxycyclopropyl)oxazol-5-yl)(4-(4-fluorobenzo[d]thiazol-2-yl)-6,7-dihydro-1H-imidazo[4,5-c]pyridin-5(4H)-yl)methanone]
1 to 5 | Cc1nc(C(C)(C)C#N)oc1C(=O)N1CCc2[nH]cnc2[C@@H]1c1nc2c(F)cccc2s1 [Example 1997, (R)-2-(5-(4-(4-fluorobenzo[d]thiazol-2-yl)-4,5,6,7-tetrahydro-1H-imidazo[4,5-c]pyridine-5-carbonyl)-4-methyloxazol-2-yl)-2-methylpropanenitrile]
< 0.5 | Cc1nc(C(C)(C)C#N)oc1C(=O)N1CCc2[nH]cnc2[C@H]1c1nc2c(F)cccc2s1 [Example 1998, (S)-2-(5-(4-(4-fluorobenzo[d]thiazol-2-yl)-4,5,6,7-tetrahydro-1H-imidazo[4,5-c]pyridine-5-carbonyl)-4-methyloxazol-2-yl)-2-methylpropanenitrile]
0.5 to 1 | O=C(c1cnn(C2CC2)c1C(F)F)N1CCc2[nH]cnc2[C@H]1c1nc2c(F)cccc2s1 [Example 1999, (S)-(1-cyclopropyl-5-(difluoromethyl)-1H-pyrazol-4-yl)(4-(4-fluorobenzo[d]thiazol-2-yl)-6,7-dihydro-1H-imidazo[4,5-c]pyridin-5(4H)-yl)methanone]
1 to 5 | O=C(c1cnn(C2CC2)c1C(F)F)N1CCc2[nH]cnc2[C@@H]1c1nc2c(F)cccc2s1 [Example 2000, (R)-(1-cyclopropyl-5-(difluoromethyl)-1H-pyrazol-4-yl)(4-(4-fluorobenzo[d]thiazol-2-yl)-6,7-dihydro-1H-imidazo[4,5-c]pyridin-5(4H)-yl)methanone]
< 0.5 | CC(C)n1ncc(C(=O)N2CCc3[nH]cnc3[C@H]2c2nc3c(F)cccc3s2)c1C(F)F [Example 2001, (S)-(5-(difluoromethyl)-1-isopropyl-1H-pyrazol-4-yl)(4-(4-fluorobenzo[d]thiazol-2-yl)-6,7-dihydro-1H-imidazo[4,5-c]pyridin-5(4H)-yl)methanone]
1 to 5 | CC(C)n1ncc(C(=O)N2CCc3[nH]cnc3[C@@H]2c2nc3c(F)cccc3s2)c1C(F)F [Example 2002, (R)-(5-(difluoromethyl)-1-isopropyl-1H-pyrazol-4-yl)(4-(4-fluorobenzo[d]thiazol-2-yl)-6,7-dihydro-1H-imidazo[4,5-c]pyridin-5(4H)-yl)methanone]
< 0.5 | O=C(c1cn(CC2CC(F)(F)C2)nc1Cl)N1CCc2[nH]cnc2[C@H]1c1nc2c(F)cccc2s1 [Example 2003, (S)-(3-chloro-1-((3,3-difluorocyclobutyl)methyl)-1H-pyrazol-4-yl)(4-(4-fluorobenzo[d]thiazol-2-yl)-6,7-dihydro-1H-imidazo[4,5-c]pyridin-5(4H)-yl)methanone]
